Test results published in US20160220710A1, “COMPOSITIONS AND METHODS FOR DELIVERING PHARMACEUTICAL AGENTS” (THE REGENTS OF THE UNIVERSITY OF MICHIGAN, priority 2015, published 2016).
Entries after “also recorded” stand apart in the source; their conditions may differ.

Legend:
[1] = tested on: LPS-induced acute lung injury; test: LPS-induced acute lung injury; assay type: in vivo, mice
Experimental: Since C57BL/6 mice are relatively resistant towards a single dose of intratracheal (IT) LPS instillation (Matute-Bello G et al., 2008 Am J Physiol Lung Cell Mol Physiol 295(3):L379-99), two IT injections of LPS (16 mg/kg; 50 μl) were administered, one on day 0 and the second on day 3. Briefly, 8 wk CFZ-treated and control mice were anesthetized using intraperitoneal injections of xylazine […]. Under direct visualization of the vocal cords using an otoscope, either LPS or an equivalent volume of PBS in a 1 mL syringe attached to an oral gavage needle (22 G) was instilled into the lungs via the oral route. The mouse was then placed in a temperature-controlled cage (37° C.) for recovery from anesthesia.
The general health status of each PBS/LPS-instilled mice was monitored by measuring body weight and rectal temperature (Microprobe Thermometer, Physitemp Instruments, Clifton, N.J.), and cardiopulmonary function (arterial oxygen saturation, respiratory rate, heart rate and pulse distention) was monitored using MouseOx with a collar clip sensor (Starr Life Sciences Corp, Oakmont, Pa.) as previously described (Lax S et al., (2014) BMJ open Respir Res 1(1):e000014; Nayak S, et al. (2014) PLoS One 9(6):e98336). In brief, one day before IT instillations (D-1) the hair around the neck of each mouse was removed using Nair (Church & Dwight, Princeton, N.J.) to enable data acquisition using the collar clip sensor. The next day (D 0), immediately prior to the first LPS/PBS dose, and every 24 h afterwards until day 6 (D 6), the body weight, temperature and MouseOx readings were recorded. MouseOx data was acquired by very brief anesthesia of the mouse using 5% isoflurane to facilitate the placement of the collar clip sensor. The mouse was then placed in an enclosed chamber with ambient light and allowed to acclimatize for 5 min at which point the animals had recovered normal activities and physiological readings. Arterial oxygen saturation, breath rate, heart rate and pulse distention measurements were then simultaneously recorded for 6 min (15 readings/sec), and any errors caused by motion during recording were excluded, after which the mean value of each parameter was used for further data analysis.
To objectively assess LPS-induced mortality, a multi-parametric scoring system that relied on the daily changes in vital signs associated with inflammatory injury progression and mortality which included arterial oxygen saturation was used (Lax et al., 2014, supra), body weight and temperature (Toth L A (2000) ILAR J 41(2):72-79; Nemzek et al., (2004) Humane endpoints in shock research. Shock 21(1):17-25). First, the percent change from baseline (D 0) in arterial oxygen saturation, body weight, and temperature in each mouse caused by IT instillation of PBS/LPS were measured and calculated daily until day 6 post-instillation. […] These mice were immediately euthanized with ketamine/xylazine and the bronchoalveolar lavage (BAL) and lungs were harvested for cellular and biochemical analysis (see below).
PBS/LPS-instilled CFZ- or control mice were euthanized by exsanguination while deeply anesthetized with an intraperitoneal injection of ketamine/xylazine. The trachea was surgically exposed and cannulated with an 18 G needle and the lungs were lavaged by instilling 1 ml DPBS (Life Technologies) containing 0.5 mM EDTA (Sigma). The retrieved BAL was then centrifuged (10 min at 400×g, 4° C.), and the supernatant was frozen (−80° C.), while the cell pellets were resuspended in 1 ml RPMI 1640 media (Life Technologies). To count total cells, the cells were stained with Trypan blue and counted using a hemocytometer. To distinguish cell types, an aliquot of the cells were dried on glass slides and stained with Diff Stain kit (IMEB Inc, San Marcos, Calif.) according to the manufacturer's instructions. […]

IκB = test: Western blot of phosphorylated IκB; assay type: cell-based, murine; conditions: 1 h
Experimental: The murine macrophage cell line RAW 264.7 was purchased from ATCC (Manassas, Va.) and maintained in DMEM (Life Technologies, Carlsbad, Calif.) supplemented with 10% FBS. Soluble CFZ or isolated CLDIs were added at various concentrations in DMEM with 5% FBS to 6-well plates containing 4×10^5 cells/well and incubated (24 h at 37° C. and 5% CO2). Culture supernatants were harvested at 24 h, centrifuged (1500×g for 5 min), and stored (−20° C.) in frozen aliquots prior to analysis. For experiments involving TLR stimulation, cells were washed twice with pre-warmed DPBS to remove extracellular, non-phagocytosed CLDIs or CFZ, and then the cells were serum-starved for 18 h in DMEM. Supernatants were collected from unstimulated cells and cells stimulated with 200 ng/ml Pam3 or 1 μg/ml LPS in DMEM.

[2] = tested on: carrageenan-induced footpad inflammation; test: Carrageenan foot edema test; assay type: in vivo, mice
Experimental: Clofazimine (CFZ, Sigma-Aldrich, C8895) was prepared in sesame oil (Shirakiku, Japan, or Roland, China) and Powdered Lab Diet 5001 (PMI International, Inc., St. Louis, Mo.) and orally administrated to Wild-type (WT) C57BL/6 mice or IL-1RA^−/− (4-5 week old, Jackson Laboratory, Bar Harbor, Me.) for up to 8 weeks ad libitum as previously described (Baik et al., 2013, supra; Baik et al., 2011, supra). Control mice were fed with the same diet without CFZ. The animal protocol was approved by the University of Michigan's Animal Care and Use Committee in accordance with the National Institutes of Health guidelines (UCUCA #PRO0005111).
Foot inflammation in response to carrageenan injection was conducted in CFZ and control mice as previously described (Otterness I G, et al., Moore P F (1988) Immunochemical Techniques Part L: Chemotaxis and Inflammation (Elsevier) doi:10.1016/0076-6879(88)62086-6). In brief, the volume of each hind paw was measured with a caliper before and after the intraplantar injection of 30 μl 2% carrageenan ([…]) in PBS or equal volume of PBS in the contralateral paw. Paw swelling was measured at 4 and 48 h after injection, after which the animals were euthanized by exsanguination while deeply anesthetized with an intraperitoneal injection of ketamine (100 mg/kg) and xylazine (10 mg/kg), and the skin tissues of the plantar region were harvested for cytokine assay (see below).

Question: How did the survival rate ([1]; 8 wk CFZ-treated, two IT LPS 16 mg/kg) turn out when CC(C)/N=c1\cc2n(-c3ccc(Cl)cc3)c3ccccc3nc-2cc1Nc1ccc(Cl)cc1 [CFZ, 3-(p-chloroanilino)-10-(p-chlorophenyl)-2, 10-dihydro-2-isopropyliminophenazine] was run?
Answer: Its survival rate is 92%.

Question: What about the “TNFα and IL-1RA expression” value ([1]; after LPS) of the same compound?
Answer: The value was “reduced TNFα and IL-1RA expression after LPS”.

Question: What about the “arterial oxygen levels vs control mice” value ([1]; after LPS) of the same compound?
Answer: The value was “significantly higher arterial oxygen levels at day 5 and day 6”.

Question: What about the “cell count in bronchioalveolar lavage (BAL)” value ([1]; after LPS) of the same compound?
Answer: The value was “significantly less cell count in bronchioalveolar lavage”.

Question: And the “number of mice losing more than 15% weight” value ([1]; after LPS)?
Answer: Its value is 1.

Question: And the “lung injury vs control mice” value ([1]; after LPS instillation)?
Answer: Its value is “notably less lung injury”.

Question: And the “body temperature drop vs control mice” value ([1]; after second LPS injection (day 4))?
Answer: The value was “more resistant to temperature drop after the second injection”.

Question: What about the “heart rate, breathing rate and pulse distention vs control mice” value ([1]; after the second LPS injection) of the same compound?
Answer: Its value is “less reduction in heart rate, breathing rate and pulse distention”.

Question: And the IκB phosphorylation (IκB; LPS stimulation)?
Answer: Its IκB phosphorylation is “inhibited LPS/TLR4-mediated IκB phosphorylation”.

Question: And the IκB phosphorylation (IκB; Pam3 stimulation)?
Answer: The IκB phosphorylation was “the Pam3/TLR2-mediated response was not affected”.

Question: And the “footpad homogenate IL-1RA levels” value ([2]; 2 weeks of CFZ treatment, 48 h)?
Answer: The value was “reduced”.

Question: And the “paw swelling vs untreated mice” value ([2]; 2 weeks of CFZ treatment, 48 h (legend: 4 and 48 h))?
Answer: The value was “only a modest reduction in paw swelling; also recorded: only a minor reduction in swelling at 4 and 48 h”.

Question: What about the “reduction in paw swelling vs untreated mice” value ([2]; 8 week CFZ-treated, 4 h post-injection) of the same compound?
Answer: The value was 57%.

Question: And the “plasma IL-1RA levels after carrageenan” value ([2]; 8 week CFZ-treated, 4 h post-injury)?
Answer: Its value is “rapidly declined at 4 h post-injury”.

Question: And the “footpad homogenate IL-1RA levels” value ([2]; 8 week CFZ-treated, 48 h)?
Answer: Its value is “increased”.

Question: And the “footpad homogenate IL-1β and TNFα levels” value ([2]; 8 week CFZ-treated, 48 h)?
Answer: The value was “dramatically reduced”.

Question: What about the “paw swelling vs untreated mice” value ([2]; 8 week CFZ-treated, 48 h post-injection) of the same compound?
Answer: The value was “strikingly reduced swelling”.

Question: What about the “anti-inflammatory effect (paw swelling)” value ([2]; IL-1RA KO mice, 6 weeks CFZ) of the same compound?
Answer: Its value is “greatly diminished in IL-1RA KO mice”.

Question: What about the paw swelling ([2]; WT mice, 6 weeks CFZ) of the same compound?
Answer: Its paw swelling is “reduced swelling compared to untreated and injured mice”.

Question: And the “footpad IL-1β levels” value ([2]; WT mice, 6 weeks CFZ, injured)?
Answer: The value was “significantly reduced”.

Question: What about the “plasma levels of TNFα and IL-1β” value ([2]; all mice, ELISA detection limit) of the same compound?
Answer: Its value is under 15 pg/mL.
